Results as given in ChEMBL document CHEMBL4342527, “Discovery of Novel Fungal Lanosterol 14α-Demethylase (CYP51)/Histone Deacetylase Dual Inhibitors to Treat Azole-Resistant Candidiasis” (J Med Chem, 2020).
Values after ≈ are worked out from the molar mass of the structure shown. Active and inactive are the calls of the source. No cut-off for these calls is given here.

Legend:
[1] = system: Cryptococcus neoformans; assay: Antifungal activity against azole-sensitive Cryptococcus neoformans H99 after 72 hrs by spectrophotometry-based serial microdilution method; format: functional, var grubii H99; conditions: Cryptococcus neoformans, var grubii H99 , 72 h; read-out: MIC80
[2] = system: Candida albicans; assay: Antifungal activity against azole-resistant Candida albicans 7781 after 48 hrs by spectrophotometry-based serial microdilution method; format: functional; conditions: Candida albicans, 7781, 48 h
[3] = system: Candida albicans; assay: Antifungal activity against azole-sensitive Candida albicans SC5314 after 48 hrs by spectrophotometry-based serial microdilution method; format: functional; conditions: Candida albicans, SC5314, 48 h; read-out: MIC80
[4] = system: Candida albicans; assay: Antifungal activity against azole-resistant Candida albicans 0304103 after 48 hrs by spectrophotometry-based serial microdilution method; format: functional; conditions: Candida albicans, 0304103, 48 h
[5] = system: Candida tropicalis; assay: Antifungal activity against azole-resistant Candida tropicalis 5008 after 48 hrs by spectrophotometry-based serial microdilution method; format: functional; conditions: Candida tropicalis, 5008, 48 h
[6] = system: Candida albicans; assay: Antifungal activity against azole-resistant Candida albicans 4108 after 48 hrs by spectrophotometry-based serial microdilution method; format: functional; conditions: Candida albicans, 4108, 48 h
[7] = system: Candida albicans; assay: Antifungal activity against Candida albicans 0304103 assessed as effect on filamentation up to 32 ug/ml after 4 hrs by differential interference contrast microscopic analysis; format: functional, organism-based
[8] = molecular target: T1, Lanosterol 14-alpha demethylase (Candida albicans (strain SC5314 / ATCC MYA-2876) (Yeast), UniProt P10613); assay: Inhibition of CYP51 in azole-resistant Candida albicans 0304103 assessed as unknown sterol 5 level at 0.5 ug/ml after 24 hrs by GC-MS analysis (reference value: 4.87%); design: scale not given: the % may be the effect or the level left
T1 sequence (P10613 whole entry): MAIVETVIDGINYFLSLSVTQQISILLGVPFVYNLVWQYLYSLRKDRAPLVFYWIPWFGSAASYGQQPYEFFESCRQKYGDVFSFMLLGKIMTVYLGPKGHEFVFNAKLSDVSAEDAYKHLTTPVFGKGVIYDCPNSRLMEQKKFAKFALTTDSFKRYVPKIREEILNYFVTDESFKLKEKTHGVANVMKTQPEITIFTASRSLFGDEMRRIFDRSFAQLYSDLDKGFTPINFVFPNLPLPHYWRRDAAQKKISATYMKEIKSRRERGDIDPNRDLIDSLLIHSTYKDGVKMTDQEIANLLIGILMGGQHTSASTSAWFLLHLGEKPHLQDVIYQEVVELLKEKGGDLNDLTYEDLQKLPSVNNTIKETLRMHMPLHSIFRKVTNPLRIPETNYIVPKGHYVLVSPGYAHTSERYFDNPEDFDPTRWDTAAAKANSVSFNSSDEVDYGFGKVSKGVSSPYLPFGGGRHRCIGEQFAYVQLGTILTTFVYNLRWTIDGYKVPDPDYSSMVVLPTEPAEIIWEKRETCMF

[9] = system: Candida albicans; assay: Inhibition of HDAC in azole-resistant Candida albicans 0304103 assessed as reduction in CDR2 gene expression at 32 ug/ml after 16 hrs by SYBR Green-1 dye based RT-PCR analysis; conditions: 304103
[10] = system: Candida albicans; assay: Inhibition of HDAC in azole-resistant Candida albicans 0304103 assessed as reduction in CDR1 gene expression at 32 ug/ml after 16 hrs by SYBR Green-1 dye based RT-PCR analysis; conditions: 304103
[11] = molecular target: T1, Lanosterol 14-alpha demethylase; assay: Inhibition of CYP51 in azole-resistant Candida albicans 0304103 assessed as unknown sterol 1 level at 0.5 ug/ml after 24 hrs by GC-MS analysis (reference value: 2.91%); design: scale not given: the % may be the effect or the level left
[12] = system: Candida albicans; assay: Inhibition of biofilm formation in azole resistant Candida albicans 0304103 at 64 ug/ml after 24 hrs by XTT assay relative to control; format: functional; conditions: Candida albicans, 0304103, 24 h
[13] = molecular target: T1, Lanosterol 14-alpha demethylase; assay: Inhibition of CYP51 in azole-resistant Candida albicans 0304103 assessed as reduction in ERG11 gene expression at 32 ug/ml after 16 hrs by SYBR Green-1 dye based RT-PCR analysis; design: species or system 304103
[14] = molecular target: Histone deacetylase; assay: Inhibition of HDAC in HUVEC using Boc-Lys(Ac)-AMC as substrate preincubated for 12 hrs followed by substrate addition and measured after 4 hrs by fluorimetry; format: ADME, cell-based, Homo sapiens
[15] = molecular target: T1, Lanosterol 14-alpha demethylase; assay: Inhibition of CYP51 in azole-resistant Candida albicans 0304103 assessed as unknown sterol 2 level at 0.5 ug/ml after 24 hrs by GC-MS analysis (reference value: 6.77%); design: scale not given: the % may be the effect or the level left
[16] = system: Candida albicans; assay: Inhibition of HDAC in azole-resistant Candida albicans 0304103 assessed as reduction in MDR1 gene expression at 32 ug/ml after 16 hrs by SYBR Green-1 dye based RT-PCR analysis; conditions: 304103
[17] = molecular target: T1, Lanosterol 14-alpha demethylase; assay: Inhibition of CYP51 in azole-resistant Candida albicans 0304103 assessed as lanosterol level at 0.5 ug/ml after 24 hrs by GC-MS analysis (reference value: 4.15%); design: scale not given: the % may be the effect or the level left
[18] = molecular target: T1, Lanosterol 14-alpha demethylase; assay: Inhibition of CYP51 in azole-resistant Candida albicans 0304103 assessed as unknown sterol 3 level at 0.5 ug/ml after 24 hrs by GC-MS analysis (reference value: 4.78%); design: scale not given: the % may be the effect or the level left
[19] = molecular target: T1, Lanosterol 14-alpha demethylase; assay: Inhibition of CYP51 in azole-resistant Candida albicans 0304103 assessed as unknown sterol 4 level at 0.5 ug/ml after 24 hrs by GC-MS analysis (reference value: 1.29%); design: scale not given: the % may be the effect or the level left
[20] = molecular target: T1, Lanosterol 14-alpha demethylase; assay: Inhibition of CYP51 in azole-resistant Candida albicans 0304103 assessed as ergosterol content at 0.5 ug/ml after 24 hrs by GC-MS analysis (reference value: 75.21%); design: scale not given: the % may be the effect or the level left
[21] = system: Candida albicans; conditions: 0304103, 32 ug/ml
Description: Inhibition of HDAC in azole-resistant Candida albicans 0304103 assessed as decrease in rhodamine 6G efflux at 32 ug/ml after 16 hrs by fluorimetry

Row | Compound | MIC80 [1] | MIC80 [2] | MIC80 [3] | MIC80 [4] | MIC80 [5] | MIC80 [6] | other results
1 | CN(Cc1ccccc1OCCCOc1ccc(C(=O)NO)cc1)CC(O)(Cn1cncn1)c1ccc(F)cc1F (racemic) | 0.5 µg/mL (≈ 0.881 µM) | 4 µg/mL (≈ 7.05 µM) | 4 µg/mL (≈ 7.05 µM) | 4 µg/mL (≈ 7.05 µM) | 8 µg/mL (≈ 14.1 µM) | 1 µg/mL (≈ 1.76 µM) | –
2 | O=C(Cc1ccc(OCCCOc2ccc(CN(CC(O)(Cn3cncn3)c3ccc(F)cc3F)C3CC3)cc2)cc1)NO (racemic) | 4 µg/mL (≈ 6.58 µM) | 4 µg/mL (≈ 6.58 µM) | 8 µg/mL (≈ 13.2 µM) | 8 µg/mL (≈ 13.2 µM) | 16 µg/mL (≈ 26.3 µM) | 32 µg/mL (≈ 52.7 µM) | –
3 | CN(Cc1ccccc1OCCCOc1ccc(CC(=O)NO)cc1)CC(O)(Cn1cncn1)c1ccc(F)cc1F (racemic) | 0.5 µg/mL (≈ 0.86 µM) | 2 µg/mL (≈ 3.44 µM) | 1 µg/mL (≈ 1.72 µM) | 2 µg/mL (≈ 3.44 µM) | 2 µg/mL (≈ 3.44 µM) | 2 µg/mL (≈ 3.44 µM) | –
4 | CN(Cc1cccc(OCCCOc2ccc(CCC(=O)NO)cc2)c1)CC(O)(Cn1cncn1)c1ccc(F)cc1F (racemic) | 2 µg/mL (≈ 3.36 µM) | 8 µg/mL (≈ 13.4 µM) | 4 µg/mL (≈ 6.72 µM) | 8 µg/mL (≈ 13.4 µM) | 8 µg/mL (≈ 13.4 µM) | 4 µg/mL (≈ 6.72 µM) | –
5 | CCN(Cc1ccc(OCCCOc2ccc(CC(=O)NO)cc2)cc1)CC(O)(Cn1cncn1)c1ccc(F)cc1F (racemic) | 1 µg/mL (≈ 1.68 µM) | 1 µg/mL (≈ 1.68 µM) | 0.25 µg/mL (≈ 0.42 µM) | 1 µg/mL (≈ 1.68 µM) | 4 µg/mL (≈ 6.72 µM) | 4 µg/mL (≈ 6.72 µM) | –
6 | CC(C)N(Cc1ccc(OCCCOc2ccc(CC(=O)NO)cc2)cc1)CC(O)(Cn1cncn1)c1ccc(F)cc1F (racemic) | 2 µg/mL (≈ 3.28 µM) | 2 µg/mL (≈ 3.28 µM) | 2 µg/mL (≈ 3.28 µM) | 2 µg/mL (≈ 3.28 µM) | 4 µg/mL (≈ 6.56 µM) | 4 µg/mL (≈ 6.56 µM) | –
7 | CN(Cc1ccccc1OCCCOc1ccc(CCC(=O)NO)cc1)CC(O)(Cn1cncn1)c1ccc(F)cc1F (racemic) | 2 µg/mL (≈ 3.36 µM) | 1 µg/mL (≈ 1.68 µM) | 1 µg/mL (≈ 1.68 µM) | 1 µg/mL (≈ 1.68 µM) | 64 µg/mL (≈ 107 µM) | 2 µg/mL (≈ 3.36 µM) | –
8 | OC(Cn1cncn1)(Cn1cncn1)c1ccc(F)cc1F [FLUCONAZOLE] | 2 µg/mL (≈ 6.53 µM) | > 64 µg/mL | 0.5 µg/mL (≈ 1.63 µM) | > 64 µg/mL | > 64 µg/mL | > 64 µg/mL | Activity [7]: inactive; Activity [8]: 4.66%; inhibition [9]: inactive; inhibition [10]: inactive; Activity [11]: 3.06%; inhibition at 64 µg/mL [12]: 22.9%; inhibition (INH) [13]: Not Active; IC50 [14]: > 40 µM; Activity [15]: 7.5%; inhibition [16]: inactive; Activity [17]: 3.94%; Activity [18]: 4.7%; Activity [19]: 1.17%; Activity [20]: 74.97%; inhibition [21]: inactive
9 | CCC(C)n1ncn(-c2ccc(N3CCN(c4ccc(OCC5COC(Cn6cncn6)(c6ccc(Cl)cc6Cl)O5)cc4)CC3)cc2)c1=O (stereo not given) [ITRACONAZOLE] | 0.125 µg/mL (≈ 0.177 µM) | > 64 µg/mL | 0.5 µg/mL (≈ 0.709 µM) | > 64 µg/mL | > 64 µg/mL | > 64 µg/mL | –
10 | C[C@@H](c1ncncc1F)[C@](O)(Cn1cncn1)c1ccc(F)cc1F [VORICONAZOLE] | 0.0625 µg/mL (≈ 0.179 µM) | > 64 µg/mL | 0.125 µg/mL (≈ 0.358 µM) | > 64 µg/mL | > 64 µg/mL | > 64 µg/mL | –
